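All cell lines were grown in 96-well plates and treated with compound for 48 hours. Abbreviation: GI50, concentration required for 50% inhibition of growth. TGI: concentration producing complete growth inhibition.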

The source of these data is PubChem BioAssay (NCI).

Common to all, as to test: NCI tumour cell line growth inhibition, 48 h
The subject of experiment [1] is SK-MEL-5 melanoma.
The subject of experiment [2] is MCF7 breast.
Experiment [3] has as its system K-562 leukemia.
In experiment [4] the test system is SK-MEL-2 melanoma.
The subject of experiment [5] is OVCAR-3 ovarian.
Experiment [6] has as its system CCRF-CEM leukemia.
For experiment [7], the system named is SK-MEL-28 melanoma.
Experiment [8] concerns NCI/ADR-RES ovarian.
The test system of experiment [9] is SNB-75 CNS.
The subject of experiment [10] is SNB-19 CNS.

Turning to `O=C(NO)[C@@H](Cc1ccccc1)NS(=O)(=O)c1ccc(-c2ccccc2)cc1`, the GI50 is 20.6 µM in [1]; over 25 µM in [2]; 10.1 µM in experiment [3]; over 25 µM in experiment [4]; 13.6 µM in [5]; over 25 µM in experiment [6]. Besides, the GI50 in [7], in experiment [8], in [9] and in [10] was over 25 µM throughout. For the same compound, the TGI in experiment [1], in experiment [2], in [3], in experiment [4], in experiment [5] and in [6] was over 25 µM in each case. For the same compound, the TGI in [7], in experiment [8], in experiment [9] and in experiment [10] was over 25 µM throughout.
Turning to `O=C(Nc1cccc(-c2ccc(Cl)c(C(F)(F)F)c2)c1)C1CCN(Cc2cccc3cccnc23)CC1`, the GI50 in [1] is 1.53 µM; in [2], 1.44 µM; in experiment [3], 1.1 µM; in [4] it was 1.99 µM; in [5], 1.72 µM; in experiment [6] it was 2.19 µM. The GI50 in experiment [7] was 1.75 µM; in experiment [8] it was 1.69 µM; in experiment [9], 1.39 µM; in experiment [10], 1.74 µM. Further, the TGI in [1] came out at 2.89 µM; in [2] it was 2.95 µM; in experiment [3], 5.99 µM; in [4] it was 3.85 µM; in experiment [5], 3.17 µM; in experiment [6] it was 5.85 µM. For the same compound, the TGI is 3.14 µM in experiment [7], 3.31 µM in experiment [8], 2.71 µM in [9] and 3.18 µM in [10].
`[N-]=[N+]=NCCCn1c2c(c3ccc([N+](=O)[O-])cc3c1=O)C(=O)c1cc(F)ccc1-2`: the GI50 was 0.803 µM in experiment [1]; 0.311 µM in experiment [2]; 1.25 µM in experiment [3]; 9.24 µM in experiment [4]; 3.76 µM in [5]; 0.432 µM in experiment [6]. For the same compound, the GI50 was 11.9 µM in [7], 1.46 µM in experiment [8], 2.13 µM in experiment [9] and 1.05 µM in experiment [10]. Besides, the TGI is 3.16 µM in experiment [1]; over 55.1 µM in experiment [2]; over 100 µM in experiment [3]; over 75.1 µM in [4]; 26 µM in [5]; 3.88 µM in experiment [6]. For the same compound, the TGI in experiment [7] was over 100 µM; in [8] it was over 49 µM; in [9], 29 µM; in [10] it was over 100 µM.
As for `O=C(N/N=C/c1ccc(O)cc1O)c1cccc(Nc2ccnc(C(F)(F)F)c2)c1`, the GI50 in experiment [1] was 0.626 µM; in [2] it was 2.2 µM; in experiment [3] it was 0.587 µM; in experiment [4] it was 7.39 µM; in [5], 0.488 µM; in experiment [6] it was 0.257 µM. Further, the GI50 was 1.83 µM in experiment [7], 9.05 µM in experiment [8], 11.3 µM in experiment [9] and 1.01 µM in experiment [10]. The TGI in experiment [1] came out at 11.1 µM; in [2], 15.5 µM; in experiment [3], 19.4 µM; in experiment [4], 27.1 µM; in experiment [5] it was 30.9 µM; in [6], 2.14 µM. Moreover, the TGI in [7] is 16.6 µM; in experiment [8], over 90.1 µM; in experiment [9] it was 52.5 µM; in experiment [10] it was over 72.6 µM.
Turning to `Oc1ccc(C2c3ccccc3Oc3ccccc32)c2cccnc12`, the GI50 in experiment [1] was 1.62 µM; in [2], 1.74 µM; in experiment [3] it was 1.37 µM; in experiment [4] it was 2.31 µM; in experiment [5], 2.45 µM; in experiment [6], 0.738 µM. For the same compound, the GI50 in experiment [7] is 5.12 µM; in experiment [8], 1.59 µM; in experiment [9], 6.96 µM; in experiment [10], 1.85 µM. Moreover, the TGI in experiment [1] is 8.66 µM; in experiment [2], over 100 µM; in experiment [3], over 100 µM; in experiment [4], 69.5 µM; in experiment [5], over 100 µM; in experiment [6] it was over 100 µM. In addition, the TGI in experiment [7], in [8], in experiment [9] and in [10] was over 100 µM in each case.
Take `OCCNc1nc(Nc2ccc(Cl)c(Cl)c2)nc2ccccc12`: the GI50 was 4.75 µM in experiment [1]; 1.96 µM in experiment [2]; 3.09 µM in experiment [3]; 16.4 µM in experiment [4]; 7.51 µM in experiment [5]; 3.07 µM in [6]. The GI50 in [7] is 6.38 µM; in experiment [8], 4.91 µM; in [9], 4.79 µM; in experiment [10], 5.02 µM. The TGI was determined as 17.7 µM in experiment [1]; 14.6 µM in experiment [2]; 10.8 µM in experiment [3]; 33.1 µM in [4]; 19.9 µM in experiment [5]; 18.1 µM in experiment [6]. In addition, the TGI in experiment [7] was determined as 20.7 µM; in experiment [8] it was 20 µM; in experiment [9], 18.7 µM; in experiment [10], 18.6 µM.
As to `C/C(=C\c1cc(C(F)(F)F)n(-c2ccc(N)cc2)n1)[C@@H]1C[C@@H]2O[C@]2(C)CCC[C@H](C)[C@H](O)[C@@H](C)C(=O)C(C)(C)[C@@H](O)CC(=O)O1`, the GI50 was 0.0235 µM in experiment [1]; 0.0041 µM in [2]; 0.0203 µM in experiment [3]; 0.0295 µM in [4]; 0.0182 µM in [5]; 0.0421 µM in experiment [6]. Also, the GI50 in experiment [7] was 0.547 µM; in [8], 0.164 µM; in experiment [9], 0.0078 µM; in experiment [10], 0.0711 µM. Besides, the TGI in experiment [1] is over 3.71 µM; in experiment [2] it was over 11.1 µM; in experiment [3] it was over 11.1 µM; in experiment [4], 0.382 µM; in experiment [5] it was 1.75 µM; in experiment [6], over 11.1 µM. The TGI in experiment [7] is over 11.1 µM; in experiment [8] it was over 8.45 µM; in experiment [9], 0.189 µM; in experiment [10], over 11.1 µM.
